Key:
[1] = TG/DTA thermal analysis of crystal forms; type: physicochemical; conditions: heated 10° C./min from 20° C. to 300° C. under nitrogen
Protocol: Approximately 5 mg of material was weighed into an open aluminium pan and loaded into a simultaneous thermogravimetric/differential thermal analyser (TG/DTA) and held at room temperature. The sample was then heated at a rate of 10° C./min from 20° C. to 300° C. during which time the change in sample weight was recorded along with any differential thermal events (DTA). Nitrogen was used as the purge gas, at a flow rate of 300 cm^3/min.

[2] = comparison value for known crystal forms, conditions not given; cited from earlier work
[3] = pKa analysis, potentiometric (pH-metric) titration; type: physicochemical; conditions: pH-metric triple titration, methanol-water co-solvent, pH 2.0-12.0, Yasuda-Shedlovsky extrapolation
Protocol: The sample pKa was determined using the potentiometric (pH-metric) technique following attempts to determine pKa via UV spectroscopic techniques.
UV-metric: The sample was initially titrated in a fast-UV triple titration between pH 2.0-12.0 at concentrations of 31-19 μM, under aqueous conditions. No evidence of any sample ionisation within the investigated pH range was inferred from the spectroscopic data obtained, meaning that any ionisable groups were remote from chromophores. Therefore, the sample was analysed using the pH-metric method.
pH-metric: The sample was subsequently titrated using the potentiometric technique to determine the non-UV active pKas. A triple titration was carried out under methanol-water co-solvent conditions from pH 2.0-12.0 at concentrations of 0.9-0.6 mM (the methanol mixing ratio varied from 53.0 to 33.3% w/w). No precipitation of the sample from solution was observed so the pKa was determined from the potentiometric data collected, by Yasuda-Shedlovsky extrapolation of the individual results obtained. pKa of 2R,6R-hydroxynorketamine was calculated as 6.51+/−0.02.

| SMILES | temperature above which the material degrades (TG/DTA) [1] | other results |
| --- | --- | --- |
| NC1(c2ccccc2Cl)CCCC(O)C1=O.O=C(O)CC(O)(CC(=O)O)C(=O)O (stereo not drawn) [2R,6R-Hydroxynorketamine Citrate] | above 157 °C |  |
| NC1(c2ccccc2Cl)CCCC(O)C1=O.O=C(O)C=CC(=O)O.O=C(O)C=CC(=O)O (stereo not drawn) [2R,6R-Hydroxynorketamine Difumarate, 2R,6R-hydroxynorketamine difumarate] | above 159 °C |  |
| NC1(c2ccccc2Cl)CCCC(O)C1=O.O=C(O)CC(O)C(=O)O [2R,6R-Hydroxynorketamine L-Malate, 2R,6R-hydroxynorketamine L-malate] | above 150 °C |  |
| N[C@@]1(c2ccccc2Cl)CCC[C@@H](O)C1=O.O=C(O)C(O)C(O)C(=O)O [2R,6R-Hydroxynorketamine L-Tartrate, 2R,6R-hydroxynorketamine L-tartrate] | above 157 °C |  |
| N[C@@]1(c2ccccc2Cl)CCC[C@@H](O)C1=O.O=C1CC[C@@H](C(=O)O)N1 [2R,6R-hydroxynorketamine L-pyroglutamate] | above 159 °C |  |
| Cl.N[C@@]1(c2ccccc2Cl)CCC[C@@H](O)C1=O [2R,6R-hydroxynorketamine hydrochloride] |  | aqueous solubility of known crystal forms [2]: 25 mg/mL |
| N[C@@]1(c2ccccc2Cl)CCC[C@@H](O)C1=O [2R,6R-hydroxynorketamine, 2R,6R-2-(2-Chlorophenyl)-2-(amino)-6-hydroxycyclohexanone] |  | pKa [3]: 6.51+/−0.02 |

Reference: US11377416B2, “Crystalline forms of hydroxynorketamine” (SMALL PHARMA LTD, priority 2017, dated 2022)
